According to patent EP0074929A1, “Polycyclic polyazaheterocycles, process for their preparation and pharmaceutical preparations containing them” (CIBA-GEIGY AG, priority 1981, dated 1983):
Structures can show the parent of a compound that is named as a salt. Where two headings read alike, the source gives them in different places.

Assays:
[1] = tested on: isolierten Meerschweinchenvorhof; conditions: known antidepressants, stated as contrast; cited from earlier work
[2] = tested on: durch Tetrabenazin induzierten Ptosis; test: Antagonism of tetrabenazine-induced ptosis in the rat (Rubin et al.); format: in vivo, Ratte
Description: (§1) Die Verbindungen der allgemeinen Formel I und ihre Säureadditionssalze besitzen wertvolle psychopharmakologische Eigenschaften. Insbesondere wirken sie antagonistisch gegenüber der durch Reserpin induzierten Hypothermie, z.B. bei intraperitonealer oder peroraler Applikation an der Ratte, [vgl. Benz und Waser, Arzneimittelforsch. 21 (5) 654 (1971)] im Dosenbereich von 10 bis 100 mg/kg, und gegenüber der durch Tetrabenazin induzierten Ptosis bei intraperitonealer oder peroraler Applikation an der Ratte [vgl. Rubin et al., J. Pharmacol. exptl. Ther. 120, 125 (1957)] im Dosenbereich von 3 bis 100 mg/kg. Beispielsweise beträgt die ED50 von 4,5-Dihydro-2-[(dimethylamino)-methyl]-5-phenyl-1,2,4-triazolo[1,5-a]chinoxalin-hydrochlorid im zweitgenannten Test 3-10 mg/kg per os und 10 mg/kg i.p.. Im Sozialkonflikt-Test an der Ratte zeigen die Verbindungen der allgemeinen Formel I, wie die vorgenannte, anxiolytische Wirkung nach peroraler Verabreichung von Dosen ab 1 mg/kg. […] Die Toxizität der Verbindungen der allgemeinen Formel I ist im Vergleich zu den erwünschten pharmakologischen Wirkungen niedrig. Diese Eigenschaften kennzeichnen die Verbindungen der allgemeinen Formel I als Antidepressiva und Anxiolytica, die zur Behandlung von Depressionen Verwendung finden können.

[3] = tested on: isolierten Meerschweinchenvorhof; test: Isolated guinea pig atrium, inotropic and chronotropic effect; design: species or system Meerschweinchen
Sozialkonflikt-Test = test: Social conflict test in the rat; format: in vivo, Ratte; conditions: po, peroral, lowest dose with anxiolytic effect, read-out: anxiolytische Wirkung nach peroraler Verabreichung von Dosen ab
Description: as §1

Structure (SMILES) | chronotrope Wirkung [1] | inotrope Wirkung [1] | ED50 ([2]; ip) | ED50 ([2]; po, per os) | chronotrope Wirkung [3] | inotrope Wirkung [3] | minimal effective dose (Sozialkonflikt-Test)
CN(C)CCCN1c2ccccc2CCc2ccccc21 [Imipramin] | positiv chronotropen | eher negativ inotropen | – | – | – | – | –
CN(C)Cc1nc2n(n1)-c1ccccc1N(c1ccccc1)C2 [4,5-Dihydro-2-[(dimethylamino)-methyl]-5-phenyl-1,2,4-triazolo[1,5-a]chinoxalin-hydrochlorid] | – | – | 10 mg/kg | 3 to 10 mg/kg | schwach negativ chronotrope | schwach positiv inotrope | ≥ 1 mg/kg
